Measured values as given in patent US6803195B1, “Facile detection of cancer and cancer risk based on level of coordination between alleles” (Ramot At Tel-Aviv University Ltd., priority 1999, dated 2004).
“And” between values parts separate entries of the source, which are not always exact repeats. Equal values may be shown once.

Columns and labels:
[1] = test system: CAD samples (hematological malignancy patients at diagnosis); assay: FISH replication assay, cultures of hematological malignancy patients (CAD) with chromatin modifiers (Example 10); assay type: cell-based, human; settings: for frequency (%) of SD cells, Mean: N = 10; for replication pattern in cells derived from cancer patients: cultured cells with chromatin modifier
Source text: (§1) Cultures were set up from 44 healthy individuals (hereafter called CON) and 20 hematological malignancy patients at diagnosis (hereafter termed CAD). For 20 of the CON samples and all of the CAD samples peripheral in addition to the setting up cultures in the regular growth medium, cultures were set up in medium containing 5-azacytidine (10^−7M; Sigma, USA; hereafter referred to as AZA) a demethylating agent. In addition, cultures from 6 CON and 10 CAD samples were set up in medium containing a deacetylating agents, either Trichostatin A (33 nM; Sigma, USA; hereafter referred to as TSA) or Sodium Butirate (1 nM; Sigma, USA; hereafter referred to as NB), two well described acetylating agents.
(§2) These samples were hybridized with two commercial probes: the AML1 probe (LSI 21, […]) and the α-satellite probe specific for centromere 17 (32-130017, hereafter marked as CEN17). The results are summarized in Table 1 giving the number of samples hybridized with each probe (N), Mean and standard deviation (stdev) as well as the p value obtained using two tailed student's t-test (Microsoft Office 98).

[2] = test system: CON samples (healthy individuals); assay: FISH replication assay, cultures of healthy individuals (CON) with chromatin modifiers (Example 10); assay type: cell-based, human; settings: cultured cells with chromatin modifier
Source text: as §1, §2

[3] = test system: peripheral blood lymphocytes (PBL); assay: FISH replication assay on PBL of healthy donors treated with GCSF; assay type: in vivo, human; settings: five days after GCSF treatment; for % SD after GCSF treatment, Average: PBL of healthy donors, n = 6 as printed; for % SD after GCSF treatment: PBL of individual healthy donors
Source text: Healthy subjects treated with GCSF. Seven first degree relatives (sibling or parent) of patients suffering from hematological malignancies who were candidates for donating peripheral blood stem cells agreed to participate in the study. PBL were collected before treatment with GCSF and five days after treatment, on the day of collecting cells for transplantation. Six donors were male, one female.
Comparison of synchrony in healthy subjects, cancer patients and GCSF-treated healthy donors. Bone marrow and PBL samples were obtained with informed consent from healthy control subjects and patients as detailed hereinabove. Samples were analyzed by FISH as described hereinabove.
It is believed that the SD cell percentage values are enhanced for a limited time and return to normal after cessation of GCSF treatment. The samples tested here were obtained five days after GCSF treatment. This period is usually chosen for obtaining cells for transplantation, because at the effect of GCSF is maximal five days after administration.

Molecule | frequency (%) of SD cells, Mean ([1]; AML1 locus, CAD + NB (1 nM)) | frequency (%) of SD cells, Mean ([1]; CEN17 locus, CAD + NB (1 nM)) | replication pattern in cells derived from cancer patients [1] | replication pattern observed in normal genomes [2] | frequency (%) of SD cells, Mean ([1]; AML1 locus, CAD + TSA (33 nM)) | frequency (%) of SD cells, Mean ([1]; CEN17 locus, CAD + TSA (33 nM)) | % SD after GCSF treatment, Average ([3]; 21q22 probe (D21S55)) | % SD after GCSF treatment ([3]; 21q22 probe (D21S55)) | % SD after GCSF treatment, Average ([3]; TP53 probe) | % SD after GCSF treatment ([3]; TP53 probe)
CCCC(=O)[O-].[Na+] [NB, Sodium Butirate] | Mean = 23.2% | Mean = 19.6% | attenuate the replication pattern presented in cells derived from cancer patients towards the normal | not affecting | – | – | – | – | – | –
CC(/C=C/C(=O)NO)=C\[C@@H](C)C(=O)c1ccc(N(C)C)cc1 [TSA, Trichostatin A] | – | – | attenuate the replication pattern presented in cells derived from cancer patients towards the normal | not affecting | Mean = 24.2% | Mean = 20.3% | – | – | – | –
GCSF: hematopoietic growth factor given to donors of bone marrow cells to enhance the number of stem cells (protein, UniProt P09919 31-207, looked up) Granulocyte …: TPLGPASSLPQSFLLKCLEQVRKIQGDGAALQEKLVSECATYKLCHPEELVLLGHSLGIPWAPLSSCPSQALQLAGCLSQLHSGLFLYQGLLQALEGISPELGPTLDTLQLDVADFATTIWQQMEELGMAPALQPTQGAMPAFASAFQRRAGGVLVASHLQSFLEVSYRVLRHLAQP | – | – | – | – | – | – | 35.42% | 32% and 43% and 39% (2×) and 31% and 29% and 35% | 36.57% | 34% (2×) and 41% and 38% and 36% (2×) and 37%
